The subject of one assay is TNF-α. Nature of the assay: LPS-stimulated whole bovine blood assay, MSD cytokine detection. In kind it is cell-based. The note with it: Bos taurus, LPS-stimulated bovine whole blood; read-out: TNF-α (IC50 μM).
For a further assay, the system named is IL-1β. Described as above. It is filed as cell-based. The settings on record: overstimulation of IL-1β, LPS-stimulated bovine whole blood.
Another assay deals with P. multocida 46572. Briefly: In vivo mouse lung infection challenge model (murine efficacy). Further details: species or system CD-1 female mice. The settings on record: 20 mg/kg subcutaneous, P. multocida challenge; harmonized against the comparative vehicle survival rate. On the procedure:
The challenge organism was P. multocida 46572. Target challenge concentration was 5×10^2 CFU/mouse. Isolated colonies from overnight growth (37° C. with 5% CO2) on trypticase soy agar (TSA II) blood plates were transferred to room temperature Brain Heart Infusion Broth (BHIB). The broth culture was incubated 3.5-4 hours to approximately mid-log phase of growth, as measured by forward light scatter at 600 nm (OD600, 0.200). The culture was centrifuged to collect the bacterial pellet. The pellet was re-suspended in BHIB and adjusted to provide an approximate concentration of 2.7 log^10 colony forming units (CFU) in 0.04 mL at the highest concentration. The challenge inoculum concentration was confirmed by serial dilutions of the inoculum for CFU enumeration. On Day −5, CD-1 female mice were received. Mice were given standard rodent diet and water ad libitum. On Day 0, bacterial inoculum (0.04 mL) was administered to each mouse (n=36) intranasally. Compounds of the invention were dosed at 20 mg/kg (0.1 mL) in a buffered (˜pH 5.4) propylene glycol, monothioglycerol and water solution by subcutaneous injection. Animals were observed from Days 1-10. The study was terminated on Day 10. In addition, some treatment groups were sampled at 6, 24, and 48 hours post bacterial challenge for RNA sequence analysis of lung tissue.
The murine efficacy model (P. multocida challenge) was optimized, and the treatment group size was powered to be able to observe statistically significant improvement of survival to expected ranges for immunomodulatory compounds. The experimental design was a randomized complete block design. Mice were individually identified and treatment groups comingled within a cage, with every treatment group equally represented across cages. Mortality was the primary variable. Mortality data was analyzed using a generalized mixed model with fixed effect of treatment and random effect of block. Survival time was also analyzed using the SAS PHREG (survival analysis) procedure to examine whether there were significant differences between treatment groups and the control group. Numerous compounds of the invention and M9 (positive control) were tested in this model at a dose of 20 mg/kg. Typical percent survival for no treatment control is in the range of 0-20% based on study to study variation in challenge inoculum and rate of infection. […] Mouse survival for M9 was about 90-100%, further supporting its antibacterial properties against the bacterial strain (Table 3). Survival values presented are harmonized against the comparative vehicle survival rate.

For assay [1], the system named is BRD pathogens, M. haemolytica and P. multocida. Briefly: MIC screening panel of BRD pathogens (antibacterial / non-antibacterial). The settings on record: read-out: antibacterial / non-antibacterial (MIC for the BRD pathogens).

Regarding `CC[C@H]1OC(=O)[C@H](C)[C@@H](O[C@H]2C[C@@](C)(OC)[C@@H](O)[C@H](C)O2)[C@H](C)[C@@H](O[C@@H]2O[C@H](C)C[C@H](N(C)C(=O)Nc3ccccc3)[C@H]2O)[C@](C)(O)C[C@@H](C)CN(C)[C@H](C)[C@@H](O)[C@]1(C)O` [Example B-4, 1-((2S,3R,4S,6R)-2-(((2R,3S,4R,5R,8R,10R,11R,12S,13S,14R)-2-ethyl-3,4,10-trihydroxy-13-(((2R,4R,5S,6S)-5-hydroxy-4-methoxy-4,6-dimethyltetrahydro-2H-pyran-2-yl)oxy)-3,5,6,8,10,12,14-heptamethyl-15-oxo-1-oxa-6-azacyclopentadecan-11-yl)oxy)-3-hydroxy-6-methyltetrahydro-2H-pyran-4-yl)-1-methyl-3-phenylurea], the IC50 (as a rule, the point on the concentration scale where inhibition reaches its midpoint) in the assay on TNF-α came out at 45 µM. The “IL-1β OS of LPS” value in the assay on IL-1β amounted to 80 µM. The “Mouse Murine Percent Survival” value in the assay on P. multocida 46572 is reported as 7%.
On to `CC[C@H]1OC(=O)[C@H](C)[C@@H](O[C@H]2C[C@@](C)(OC)[C@](C)(O)[C@H](C)O2)[C@H](C)[C@@H](O[C@@H]2O[C@H](C)C[C@H](N(C)C(=O)N(C)c3ccc(C(F)(F)F)cc3)[C@H]2O)[C@](C)(O)C[C@@H](C)CN[C@H](C)[C@@H](O)[C@]1(C)O` [Example B-13a, 1-((2S,3R,4S,6R)-2-(((2R,3S,4R,5R,8R,10R,11R,12S,13S,14R)-2-ethyl-3,4,10-trihydroxy-13-(((2R,4R,5R,6S)-5-hydroxy-4-methoxy-4,5,6-trimethyltetrahydro-2H-pyran-2-yl)oxy)-3,5,8,10,12,14-hexamethyl-15-oxo-1-oxa-6-azacyclopentadecan-11-yl)oxy)-3-hydroxy-6-methyltetrahydro-2H-pyran-4-yl)-1,3-dimethyl-3-(4-(trifluoromethyl)phenyl)urea], for which the IC50 in the assay on TNF-α came to 20 µM. Besides, the “IL-1β OS of LPS” value in the assay with IL-1β was determined as 16 µM. In addition, in the assay with P. multocida 46572, the “Mouse Murine Percent Survival” value was 44%.
For `CC[C@H]1OC(=O)[C@H](C)[C@@H](O[C@H]2C[C@@](C)(OC)[C@](O)(CNCCN(C)C)[C@H](C)O2)[C@H](C)[C@@H](O[C@@H]2O[C@H](C)C[C@H](N(C)C(=O)Nc3ccccc3)[C@H]2O)[C@](C)(O)C[C@@H](C)CN[C@H](C)[C@@H](O)[C@]1(C)O` [Example H-3, 1-((2S,3R,4S,6R)-2-(((2R,3S,4R,5R,8R,10R,11R,12S,13S,14R)-13-(((2R,4R,5S,6S)-5-(((2-(dimethylamino)ethyl)amino)methyl)-5-hydroxy-4-methoxy-4,6-dimethyltetrahydro-2H-pyran-2-yl)oxy)-2-ethyl-3,4,10-trihydroxy-3,5,8,10,12,14-hexamethyl-15-oxo-1-oxa-6-azacyclopentadecan-11-yl)oxy)-3-hydroxy-6-methyltetrahydro-2H-pyran-4-yl)-1-methyl-3-phenylurea] the same measures were 400 µM, more than 500 µM and 8%.
In the case of `CCCNC[C@]1(O)[C@H](C)O[C@@H](O[C@H]2[C@H](C)[C@@H](O[C@@H]3O[C@H](C)C[C@H](N(C)C(=O)Nc4ccncc4)[C@H]3O)[C@](C)(O)C[C@@H](C)CN[C@H](C)[C@@H](O)[C@](C)(O)[C@@H](CC)OC(=O)[C@@H]2C)C[C@@]1(C)OC` [Example H-73, 1-((2S,3R,4S,6R)-2-(((2R,3S,4R,5R,8R,10R,11R,12S,13S,14R)-2-ethyl-3,4,10-trihydroxy-13-(((2R,4R,5S,6S)-5-hydroxy-4-methoxy-4,6-dimethyl-5-((propylamino)methyl)tetrahydro-2H-pyran-2-yl)oxy)-3,5,8,10,12,14-hexamethyl-15-oxo-1-oxa-6-azacyclopentadecan-11-yl)oxy)-3-hydroxy-6-methyltetrahydro-2H-pyran-4-yl)-1-methyl-3-(pyridin-4-yl)urea], in the assay with TNF-α, the IC50 is more than 500 µM. The “IL-1β OS of LPS” value in the assay on IL-1β is more than 500 µM. Further, the “Mouse Murine Percent Survival” value in the assay on P. multocida 46572 was found to be 4%.
Regarding `CCCNC[C@]1(O)[C@H](C)O[C@@H](O[C@H]2[C@H](C)[C@@H](O[C@@H]3O[C@H](C)C[C@H](N(C)C(=O)Nc4ccc(F)cc4)[C@H]3O)[C@](C)(O)C[C@@H](C)CN[C@H](C)[C@@H](O)[C@](C)(O)[C@@H](CC)OC(=O)[C@@H]2C)C[C@@]1(C)OC` [Example H-83, 1-((2S,3R,4S,6R)-2-(((2R,3S,4R,5R,8R,10R,11R,12S,13S,14R)-2-ethyl-3,4,10-trihydroxy-13-(((2R,4R,5S,6S)-5-hydroxy-4-methoxy-4,6-dimethyl-5-((propylamino)methyl)tetrahydro-2H-pyran-2-yl)oxy)-3,5,8,10,12,14-hexamethyl-15-oxo-1-oxa-6-azacyclopentadecan-11-yl)oxy)-3-hydroxy-6-methyltetrahydro-2H-pyran-4-yl)-3-(4-fluorophenyl)-1-methylurea], the half-inhibitory concentration (IC50) in the assay with TNF-α stood at 350 µM. In addition, the MIC in assay [1] was more than 64 µg/mL. For the same compound, the “IL-1β OS of LPS” value in the assay with IL-1β came to 80 µM. The “Mouse Murine Percent Survival” value in the assay on P. multocida 46572 turned out to be 11%.
As for `CCCNC[C@]1(O)[C@H](C)O[C@@H](O[C@H]2[C@H](C)[C@@H](O[C@@H]3O[C@H](C)C[C@H](N(C)C(=O)Nc4ccc(OC)cc4)[C@H]3O)[C@](C)(O)C[C@@H](C)CN[C@H](C)[C@@H](O)[C@](C)(O)[C@@H](CC)OC(=O)[C@@H]2C)C[C@@]1(C)OC` [Example H-87, 1-((2S,3R,4S,6R)-2-(((2R,3S,4R,5R,8R,10R,11R,12S,13S,14R)-2-ethyl-3,4,10-trihydroxy-13-(((2R,4R,5S,6S)-5-hydroxy-4-methoxy-4,6-dimethyl-5-((propylamino)methyl)tetrahydro-2H-pyran-2-yl)oxy)-3,5,8,10,12,14-hexamethyl-15-oxo-1-oxa-6-azacyclopentadecan-11-yl)oxy)-3-hydroxy-6-methyltetrahydro-2H-pyran-4-yl)-3-(4-methoxyphenyl)-1-methylurea], the IC50 with TNF-α stood at 100 µM. For the same compound, the “IL-1β OS of LPS” value in the assay with IL-1β came to 500 µM. Also, the “Mouse Murine Percent Survival” value with P. multocida 46572 came to 14%.
Take `CCCNC(=O)N(C)[C@H]1C[C@@H](C)O[C@@H](O[C@@H]2[C@@H](C)[C@H](O[C@H]3C[C@@](C)(OC)[C@](O)(CNc4ccc(C(F)(F)F)cc4)[C@H](C)O3)[C@@H](C)C(=O)O[C@H](CC)[C@@](C)(O)[C@H](O)[C@@H](C)NC[C@H](C)C[C@@]2(C)O)[C@@H]1O` [Example H-95, 1-((2S,3R,4S,6R)-2-(((2R,3S,4R,5R,8R,10R,11R,12S,13S,14R)-2-ethyl-3,4,10-trihydroxy-13-(((2R,4R,5S,6S)-5-hydroxy-4-methoxy-4,6-dimethyl-5-(((4-(trifluoromethyl)phenyl)amino)methyl)tetrahydro-2H-pyran-2-yl)oxy)-3,5,8,10,12,14-hexamethyl-15-oxo-1-oxa-6-azacyclopentadecan-11-yl)oxy)-3-hydroxy-6-methyltetrahydro-2H-pyran-4-yl)-1-methyl-3-propylurea]: the IC50 with TNF-α came to 10 µM. In addition, in assay [1], the MIC was more than 64 µg/mL. The “IL-1β OS of LPS” value in the assay with IL-1β came out at 13 µM. The “Mouse Murine Percent Survival” value with P. multocida 46572 came to 39%.
In the case of `CCCNC[C@]1(O)[C@H](C)O[C@@H](O[C@H]2[C@H](C)[C@@H](O[C@@H]3O[C@H](C)C[C@H](N(C)C(N)=O)[C@H]3O)[C@](C)(O)C[C@@H](C)CN[C@H](C)[C@@H](O)[C@](C)(O)[C@@H](CC)OC(=O)[C@@H]2C)C[C@@]1(C)OC` [Example H-96, 1-((2S,3R,4S,6R)-2-(((2R,3S,4R,5R,8R,10R,11R,12S,13S,14R)-2-ethyl-3,4,10-trihydroxy-13-(((2R,4R,5S,6S)-5-hydroxy-4-methoxy-4,6-dimethyl-5-((propylamino)methyl)tetrahydro-2H-pyran-2-yl)oxy)-3,5,8,10,12,14-hexamethyl-15-oxo-1-oxa-6-azacyclopentadecan-11-yl)oxy)-3-hydroxy-6-methyltetrahydro-2H-pyran-4-yl)-1-methylurea], the MIC in assay [1] is more than 64 µg/mL. The “Mouse Murine Percent Survival” value in the assay on P. multocida 46572 was 11%.
